The test system of one experiment is topoisomerase IIα. As to the kind of experiment: Amount of expression of topoisomerase IIα in whole cell extract by western blotting. Type of experiment: cell-based, human. As to conditions: glucose starvation condition 14 hours; PSI, MG115, MG132 5 µM; lactacystin 10 µM; E64, ZLLal 50 µM; FIG. 5(a)-(c). From the text:
Topoisomerase II inhibiting anticancer drug stabilizes a complex (cleavable complex) consisting of the DNA and topoisomerase IIα occurring in a catalytic reaction process of topoisomerase IIα to cause DNA damage. Therefore, cell-killing effect of the topoisomerase II-inhibiting anticancer drug depends on the amount of intracellular expression of topoisomerase IIα essential for formation of the cleavable complex. Then, the amount of expression of topoisomerase IIα in the cultured cancer cell under the glucose starvation and hypoxia environment that are found in the solid cancer and the effect of the proteasome inhibiting agent to the amount of expression were examined.
The culture condition of cells is same as that described in Example 1 including the M phase synchronous culture method and culture under the glucose starvation condition. Culture under hypoxia condition, that is found in the solid cancer, similar to glucose starvation was carried out using the culture medium (that prepared by adding 5% FBS to RPMI1640 culture medium) under the ordinary condition in a Gaspack 100 anaerobic system (Becton Dickinson made). Culture under the glucose starvation condition and hypoxia condition was carried out for 14 hours .
With the purpose to prepare a whole cell extract solution, cells culture under the above described condition were washed with an ice-cooled PBS twice and then, cells were removed from the culture dish by using a cell scraper (Sumitomo Bakelite made) for collection. Cells collected were precipitated by centrifugation and then, dissolved in an SDS sample buffer to collect as the extract solution from all cells. For reference, the composition of the SDS sample buffer was 10% v/v, glycerol, 5% 2-mercaptoethanol, 2% SDS (sodium lauryl sulfate), and 62.5 mM tris-hydrochloric acid (pH 6.8).
The amount of topoisomerase IIα in the extract solution from all cells was measured by the western blotting method. The extract solution from all cells containing a total protein quantity of 30 µg was put on an SDS polyacrylamide gel (4-20 Multigel: Daiichi Pure Chemicals K.K. made) and subjected to electrophoresis in an electrophoresis buffer (25 mM tris, 192 mM glycine, and 0.1% SDS) in a 40 mA constant current for 1 hour. Subsequently, blotting was carried out in 4°C blotting buffer (25 mM tris, 192 mM glycine, and 20% methanol) in a 50 V constant voltage for 12 hours to transfer a protein separated in the SDS polyacrylamide gel to a nitrocellulose membrane. This nitrocellulose membrane was soaked in a blocking buffer (0.1% Tween 20, 4% skim milk-added PBS) for 1 hour to carry out blocking. The nitrocellulose membrane blocked was soaked in a solution, that was prepared by adding anti-topoisomerase IIα antibody (Cambridge Research Biochemicals Corp. made) of the final concentration 1 µg/ml as the primary antibody to the blocking buffer solution, for 1 hour. The nitrocellulose membrane was washed with the blocking buffer three times (5 minutes once), and then, soaked in the solution, in which a 1/1000 volume of an antimouse antibody (Amersham Pharmacia Biotech made) labeled with horse radish peroxidase as a secondary antibody had been added to the blocking buffer, for 1 hour. The nitrocellulose membrane was washed with the blocking buffer three times (5 minutes once), and then, washed with the PBS, to which 0.1% Tween 20 was added, three times (5 minutes once). The nitrocellulose membrane after completion of antibody reaction and washing was treated with the ECL reagent (Amersham Pharmacia Biotech made) after a handling manual and a topoisomerase IIα-specific signal was detected on an X-OMAT™AR film (Kodakmade). For reference, steps after blotting was carried out in a room temperature. […]
The cell culture condition for both M phase-synchronized culture method and culture under the glucose starvation condition was as described in Example 1. […]
Background: Immunoblotting shows a protein as a band on a membrane.

Experiment [1] has as its system human colon adenocarcinoma cell HT-29. As to the kind of experiment: Sensitivity of cells to anticancer drug by colony formation method (M phase-synchronized cells, with or without proteasome inhibiting agent). As to conditions: for change of cell-killing effect of camptothecin: lactacystin 10 µM 13 hours, camptothecin 4 hours, FIG. 14. Type of experiment: cell-based. As to the method: In the glucose starvation environment found in the solid cancer, the effect of combined use of the proteasome inhibitor in a human colon adenocarcinoma cell HT-29 with the anticancer drug targeting topoisomerase II was tested.
Concerning culture media, for a culture condition in a normal state, RPMI 1640 medium (Nissui Pharmaceutical Co.-made) to which a 5% FBS (fetal bovine serum) was added and for the culture condition in the glucose starvation state symbolically found in the solid cancer, RPMI 1640 medium (Lifetech Oriental-made), lacking glucose, in which the 5% FBS was added were used, respectively. Culture was carried out using a CO2 incubator (Tabai Espec-made) under conditions of 5% CO2/95% air and humidity 100%.
In order to test sensitivity to the anticancer drug, the cell cycle synchronization culture methodwas employed. Nocodazol (Sigma made) was used to synchronize the cell cycle, cells in a logarithmic proliferation phase were treated with 40 ng/ml Nocodazol for 9 hours, and cells accumulated in cell division phase (Mpahse) were collected by gentle pipetting. M phase-synchronized cells collected through these steps were washed with PBS (phosphate buffered saline) followed by inoculation of 1×10^5 cells per well of 12 well-culture plate.
M phase-synchronized cells were cultured under the normal condition and the glucose starvation condition to conduct treatments with the proteasome inhibiting agent and the anticancer drug as follows. For cells under the glucose starvation condition, the culture medium, to which the proteasome inhibiting agent and the protease inhibiting agent not inhibiting proteasome were added as the control group, and the culture medium, to which no inhibiting agent has been added, was used. For cells under the normal condition, the culture medium, to which each inhibiting agent was not added, was used. After inoculation of cells, culture was carried out for 13 hours in each culture medium. […]
Sensitivity of cells to the anticancer drug was measured using the colony formation method. As described above, cells treated with the proteasome inhibiting agent and the anticancer drug were washed with PBS followed by soaking in trypsin (Lifetech Oriental made) solution and removed from a culture dish to suspend in an ordinary culture medium. These cells were inoculated again in 500 to 5000 cells for a 10 cm culture dish and cultured for 10 to 12 days to form a colony. The colony formed was fixed by 10% formaldehyde solution and stainedwith 0.01% crystal violet (Wako Pure Chemicals made) solution. Number of colony was counted and a Cell survival rate was calculated assuming that the number of colonies untreated with the anticancer drug is 1.
For reference, the proteasome inhibiting agent and the protease inhibiting agent not inhibiting proteasome used as described above were as follows. • (1) Proteasome inhibiting agent • . […] MG115 (carbobenzoxy-L-Leucyl-L-Leucyl-L-Norvalinal): final concentration 2.5 µM (Peptide Institute Inc. made) • . MG132 (carbobenzoxy-L-Leucyl-L-Leucyl-Leucinal) : final concentration 2.5 µM (Peptide Institute Inc. made) • . Lactacystin, final concentration 10 µM (Kindly supplied from The Kitasato Institute made) • (2) Protease inhibiting agent not inhibiting proteasome • . E64, final concentration 25 µM (Peptide Institute Inc. made) • . ZLLal (carbobenzoxy-L-Leucyl-L-Leucinal): final concentration 25 µM (Peptide Institute Inc. made)
The cell culture condition for both M phase-synchronized culture method and culture under the glucose starvation condition was as described in Example 1. M phase-synchronized cells were cultured in the culture medium, to which lactacystin of the final concentration 10 µM was added, or the culture medium, to which this was not added, as the proteasome inhibiting agent under the ordinary condition and the glucose starvation condition, respectively, for 13 hours. […]

In the case of `CC(=O)N[C@@H](CSC(=O)[C@]1([C@@H](O)C(C)C)NC(=O)[C@H](C)[C@@H]1O)C(=O)O` [lactacystin], in the experiment with topoisomerase IIα, the “expressed amount of topoisomerase IIα” value is on record as “similarly inhibits drop of expression of topoisomerase IIα”. Moreover, the “change of cell-killing effect of bleomycin” value in experiment [1] (glucose starvation condition, lactacystin 7.5 µM 13 hours, bleomycin 4 hours) is “enhances the cell-killing effect”. Besides, the “change of cell-killing effect of mitomycin C” value in experiment [1] (glucose starvation condition, lactacystin 7.5 µM 13 hours, mitomycin C 4 hours) is listed as “enhances the cell-killing effect of mitomycin C”. The “change of cell-killing effect of camptothecin” value was “enhances the cell-killing effect of camptothecin” in experiment [1] (glucose starvation condition) and “the cell-killing effect thereof is enhanced” in experiment [1] (ordinary culture condition). In experiment [1] (glucose starvation condition, lactacystin 10 µM, FIG. 3), the “effect on etoposide sensitivity” value was “enhances sensitivity to etoposide”. Besides, the “change of cell-killing effect of cisplatin” value in experiment [1] (ordinary culture condition and glucose starvation condition, lactacystin 7.5 µM 13 hours, cisplatin 4 hours, FIG. 18) was “enhances the cell-killing effect of cisplatin”.

These data come from patent publication EP1153612A1, “ANTICANCER AGENT POTENTIATORS” (Tsuruo, Takashi, priority 1999, dated 2000).
